Several values for one entry are separate records, joined by “and”; a condition that tells them apart may be missing. Identical values can stand only once. Entries after “also recorded” stand apart in the source; their conditions may differ. Like-named read-outs stand apart in the source and are kept apart here.
Experiments:
Format in all cases: cell-based
[1] = target: T1, constitutively active EP2 WT (Homo sapiens, UniProt P43116); assay: GloSensor cAMP assay, inhibition of constitutive activity
T1 construct: The full-length EP2 or EP4 was cloned into the pcDNA3.1 vector; FLAG (N); expressed in transfected cells; host or cells: AD293 cells
Description: (§1) The full-length EP2 or EP4 was cloned into the pcDNA3.1 vector (Invitrogen), incorporating an N-terminal FLAG tag. AD293 cells were seeded in six-well plates containing DMEM supplemented with 10% dialyzed FBS 1 day prior to transfection. Following overnight growth, cells were transfected with a 1:1 ratio of receptor construct and GloSensor22F cAMP biosensor (Promega) plasmids.
(§2) Twenty-four hours post-transfection, the cells were transferred to CO2-independent media containing 2% GloSensor cAMP Reagent (Promega) and distributed into 384-well assay plates at a density of 4000 cells per well in 10 μL. […] The plates were then incubated at 37 °C for an additional hour before luminescence measurements were taken using an EnVision plate reader.
(§3) Data analysis was performed using GraphPad Prism software v8.0.1. A nonlinear regression analysis, employing a sigmoidal dose–response model, was conducted to determine the Emax values and half-maximum inhibitory concentrations (IC50) for each compound tested.

[2] = target: T2, constitutively active EP2 W186A (Homo sapiens, UniProt P43116, W186A); assay: as above
T2 construct: The full-length EP2 or EP4 was cloned into the pcDNA3.1 vector; FLAG (N); expressed in transfected cells; host or cells: AD293 cells
Description: as §1, §2, §3

[3] = target: T3, constitutively active EP2 S86A (Homo sapiens, UniProt P43116, S86A); assay: as above; settings: for cAMP activity (∆pIC50 from EP2 WT): PF-04418948, S86A
T3 construct: The full-length EP2 or EP4 was cloned into the pcDNA3.1 vector; FLAG (N); expressed in transfected cells; host or cells: AD293 cells
Description: as §1, §2, §3

[4] = target: T4, constitutively active EP2 M116A (Homo sapiens, UniProt P43116, M116A); assay: as above
T4 construct: The full-length EP2 or EP4 was cloned into the pcDNA3.1 vector; FLAG (N); expressed in transfected cells; host or cells: AD293 cells
Description: as §1, §2, §3

[5] = target: T5, constitutively active EP2 S305A (Homo sapiens, UniProt P43116, S305A); assay: as above; settings: for cAMP activity (∆pIC50 from EP2 WT): PF-04418948, S305A
T5 construct: The full-length EP2 or EP4 was cloned into the pcDNA3.1 vector; FLAG (N); expressed in transfected cells; host or cells: AD293 cells
Description: as §1, §2, §3

[6] = target: T6, constitutively active EP2 T82A (Homo sapiens, UniProt P43116, T82A); assay: as above
T6 construct: The full-length EP2 or EP4 was cloned into the pcDNA3.1 vector; FLAG (N); expressed in transfected cells; host or cells: AD293 cells
Description: as §1, §2, §3

[7] = target: T7, constitutively active EP2 S308A (Homo sapiens, UniProt P43116, S308A); assay: as above
T7 construct: The full-length EP2 or EP4 was cloned into the pcDNA3.1 vector; FLAG (N); expressed in transfected cells; host or cells: AD293 cells
Description: as §1, §2, §3

EP4 WT = target: T8, EP4 WT (Homo sapiens, UniProt P35408); assay: GloSensor cAMP assay, antagonism of PGE2-induced cAMP; settings: 1 h, single experiments 1st-3rd, Fig. S1A
T8 construct: The full-length EP2 or EP4 was cloned into the pcDNA3.1 vector; FLAG (N); expressed in transfected cells; host or cells: AD293 cells
Description: as §1, §2, §3

EP2 WT = EP2 WT (Homo sapiens, UniProt P43116); assay: as above; parameters: The full-length EP2 or EP4 was cloned into the pcDNA3.1 vector; FLAG (N); expressed in transfected cells; host or cells: AD293 cells; settings: for remaining activity at 0.1 µM / remaining activity at 0.01 µM / remaining activity at 0.001 µM / remaining activity at 0.0001 µM / remaining activity at 10 pM / remaining activity at 1 pM / remaining activity at 10 µM / remaining activity at 1 µM: 1 h; for remaining activity at 0.1 µM / remaining activity at 0.01 µM / remaining activity at 0.001 µM / remaining activity at 0.0001 µM / remaining activity at 10 pM / remaining activity at 1 pM / remaining activity at 10 µM / remaining activity at 1 µM / cAMP activity (∆pIC50 from EP2 WT): single experiments 1st-3rd
Description: as §1, §2, §3

[8] = 1 h, PF-04418948 log([M]) -8.00, read-out: % cAMP activity (normalized to WT)
[9] = 1 h, PF-04418948 log([M]) -9.00, read-out: % cAMP activity (normalized to WT)
[10] = 1 h, PF-04418948 log([M]) -10.00, read-out: % cAMP activity (normalized to WT)
[11] = 1 h, PF-04418948 log([M]) -11.00, read-out: % cAMP activity (normalized to WT)
[12] = 1 h, PF-04418948 log([M]) -12.00, read-out: % cAMP activity (normalized to WT)
[13] = 1 h, PF-04418948 log([M]) -6.00, read-out: % cAMP activity (normalized to WT)
[14] = no PGE2, pIC50 mutant - pIC50 WT, mean
[15] = 1 h, PF-04418948 log([M]) -5.00, read-out: % cAMP activity (normalized to WT)

T1 sequence (P43116 whole entry): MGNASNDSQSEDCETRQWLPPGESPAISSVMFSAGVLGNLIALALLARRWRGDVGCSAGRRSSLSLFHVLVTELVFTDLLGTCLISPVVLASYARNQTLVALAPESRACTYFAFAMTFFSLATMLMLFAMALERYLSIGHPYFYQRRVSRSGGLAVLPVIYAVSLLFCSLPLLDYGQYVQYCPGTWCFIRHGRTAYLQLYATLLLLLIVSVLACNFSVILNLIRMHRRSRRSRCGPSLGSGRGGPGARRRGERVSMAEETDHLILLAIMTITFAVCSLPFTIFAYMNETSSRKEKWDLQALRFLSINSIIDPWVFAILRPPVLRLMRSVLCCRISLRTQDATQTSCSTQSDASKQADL
Sequence of EP2 WT (P43116 whole entry): as above
T3 sequence (P43116 whole entry S86A): as the sequence (P43116 whole entry) above, with S86A counted along it
T8 sequence (P35408 whole entry): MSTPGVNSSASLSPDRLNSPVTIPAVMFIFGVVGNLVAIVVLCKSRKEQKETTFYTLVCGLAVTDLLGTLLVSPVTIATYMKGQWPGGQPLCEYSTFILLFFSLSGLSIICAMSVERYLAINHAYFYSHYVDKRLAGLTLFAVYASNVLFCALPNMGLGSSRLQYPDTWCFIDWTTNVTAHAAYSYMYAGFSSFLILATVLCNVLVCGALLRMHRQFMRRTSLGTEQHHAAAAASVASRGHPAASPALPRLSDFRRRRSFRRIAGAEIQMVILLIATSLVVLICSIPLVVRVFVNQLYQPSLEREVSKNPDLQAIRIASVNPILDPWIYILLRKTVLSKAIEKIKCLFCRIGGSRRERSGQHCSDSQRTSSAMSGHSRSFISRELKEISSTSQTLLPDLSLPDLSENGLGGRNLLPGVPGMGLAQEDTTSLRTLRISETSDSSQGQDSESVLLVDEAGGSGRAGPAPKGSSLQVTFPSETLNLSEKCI
T5 sequence (P43116 whole entry S305A): as the sequence (P43116 whole entry) above, with S305A counted along it
T6 sequence (P43116 whole entry T82A): as the sequence (P43116 whole entry) above, with T82A counted along it
T7 sequence (P43116 whole entry S308A): as the sequence (P43116 whole entry) above, with S308A counted along it
T4 sequence (P43116 whole entry M116A): as the sequence (P43116 whole entry) above, with M116A counted along it
T2 sequence (P43116 whole entry W186A): as the sequence (P43116 whole entry) above, with W186A counted along it

COc1ccc2cc(OCC3(C(=O)O)CN(C(=O)c4ccc(F)cc4)C3)ccc2c1 [PF-04418948]
remaining activity at 0.1 µM ([1]; 1 h, PF-04418948 log([M]) -7.00, read-out: % cAMP activity (normalized to WT)): 10.6%
remaining activity at 0.01 µM [1, 8]: 44.6%
remaining activity at 0.001 µM [1, 9]: 89.9%
remaining activity at 0.0001 µM [1, 10]: 92.4%
remaining activity at 10 pM [1, 11]: 102%
remaining activity at 1 pM [1, 12]: 104%
cAMP activity (∆pIC50 from EP2 WT) ([1]; PF-04418948, WT, single experiments 1st-3rd): -0.051 and 0.118 and -0.068
remaining activity at 1 µM [2, 13]: 49.1%
remaining activity at 0.01 µM [2, 8]: 95.7%
remaining activity at 0.001 µM [2, 9]: 94.5%
remaining activity at 0.0001 µM [2, 10]: 103%
remaining activity at 10 pM [2, 11]: 108%
remaining activity at 1 pM [2, 12]: 90.9%
cAMP activity (∆pIC50 from EP2 WT) ([2]; PF-04418948, W186A, Mean): -2.049
ΔpIC50 [2, 14]: -2.05 ± 0.09
remaining activity at 10 µM [3, 15]: 14.6%
remaining activity at 1 µM [3, 13]: 35.7%
cAMP activity (∆pIC50 from EP2 WT) ([3]; Mean): -0.316
cAMP activity (∆pIC50 from EP2 WT) ([3]; single experiments 1st-3rd): -0.355 and -0.329 and -0.263
remaining activity at 10 µM [4, 15]: 5.6%
remaining activity at 1 µM [4, 13]: 38.1%
remaining activity at 0.0001 µM [4, 10]: 245%
remaining activity at 10 pM [4, 11]: 252%
cAMP activity (∆pIC50 from EP2 WT) ([4]; PF-04418948, M116A, Mean): -1.518
ΔpIC50 [4, 14]: -1.52 ± 0.12
cAMP activity (∆pIC50 from EP2 WT) ([5]; Mean): -1.012
cAMP activity (∆pIC50 from EP2 WT) ([5]; single experiments 1st-3rd): -1.044 and -1.010 and -0.982
ΔpIC50 [5, 14]: -1.01 ± 0.02
remaining activity at 0.0001 µM [6, 10]: 302%
remaining activity at 1 pM [6, 12]: 299%
cAMP activity (∆pIC50 from EP2 WT) ([6]; PF-04418948, T82A, Mean): -0.369
ΔpIC50 [6, 14]: -0.37 ± 0.10
remaining activity at 0.01 µM [7, 8]: 45.3%
remaining activity at 0.001 µM [7, 9]: 80.9%
remaining activity at 0.0001 µM [7, 10]: 93%
remaining activity at 10 pM [7, 11]: 84.1%
remaining activity at 1 pM [7, 12]: 68.1%
cAMP activity (∆pIC50 from EP2 WT) ([7]; PF-04418948, S308A, Mean): -0.283
ΔpIC50 [7, 14]: -0.28 ± 0.10
remaining activity at 100 µM (EP4 WT; read-out: % cAMP activity EP4 (normalized to Grapiprant), ligand log([M]) -4.00): 99.1%
remaining activity at […] (EP4 WT; read-out: % cAMP activity EP4 (normalized to Grapiprant), ligand log([M]) -4.70): 107%
remaining activity at […] (EP4 WT; read-out: % cAMP activity EP4 (normalized to Grapiprant), ligand log([M]) -5.40): 103%
remaining activity at […] (EP4 WT; read-out: % cAMP activity EP4 (normalized to Grapiprant), ligand log([M]) -6.10): 106%
remaining activity at 0.03236 µM (EP4 WT; read-out: % cAMP activity EP4 (normalized to Grapiprant), ligand log([M]) -7.49): 93.7%
remaining activity at 0.001288 µM (EP4 WT; read-out: % cAMP activity EP4 (normalized to Grapiprant), ligand log([M]) -8.89): 94%
remaining activity at 0.1 µM (EP2 WT; PF-04418948 log([M]) -7, Fig. 3D, read-out: % cAMP activity (normalized to WT)): 5.55%
remaining activity at 0.01 µM (EP2 WT; PF-04418948 log([M]) -8, Fig. 3D, read-out: % cAMP activity (normalized to WT)): 44.3%
remaining activity at 0.001 µM (EP2 WT; PF-04418948 log([M]) -9, Fig. 3D, read-out: % cAMP activity (normalized to WT)): 82.7%
remaining activity at 0.0001 µM (EP2 WT; PF-04418948 log([M]) -10, Fig. 3D, read-out: % cAMP activity (normalized to WT)): 105%
remaining activity at 10 pM (EP2 WT; PF-04418948 log([M]) -11, Fig. 3D, read-out: % cAMP activity (normalized to WT)): 101%
remaining activity at 1 pM (EP2 WT; PF-04418948 log([M]) -12, Fig. 3D, read-out: % cAMP activity (normalized to WT)): 104%
remaining activity at 10 µM (EP2 WT; ligand log([M]) -5, Fig. S7B, read-out: % cAMP activity (normalized to WT)): 2.66%
remaining activity at 1 µM (EP2 WT; ligand log([M]) -6, Fig. S7B, read-out: % cAMP activity (normalized to WT)): 2.72%
remaining activity at 0.1 µM (EP2 WT; ligand log([M]) -7, Fig. S7B, read-out: % cAMP activity (normalized to WT)): 8.2%
remaining activity at 0.01 µM (EP2 WT; ligand log([M]) -8, Fig. S7B, read-out: % cAMP activity (normalized to WT)): 63.2%
remaining activity at 0.001 µM (EP2 WT; ligand log([M]) -9, Fig. S7B, read-out: % cAMP activity (normalized to WT)): 96.2%
remaining activity at 0.0001 µM (EP2 WT; ligand log([M]) -10, Fig. S7B, read-out: % cAMP activity (normalized to WT)): 92.4%
remaining activity at 10 pM (EP2 WT; ligand log([M]) -11, Fig. S7B, read-out: % cAMP activity (normalized to WT)): 103%
remaining activity at 1 pM (EP2 WT; ligand log([M]) -12, Fig. S7B, read-out: % cAMP activity (normalized to WT)): 101%
remaining activity at 10 µM (EP2 WT; read-out: % cAMP activity on EP2 (normalized to PF-04418948), ligand log([M]) -5, Fig. S1A): 2.66%
remaining activity at 1 µM (EP2 WT; read-out: % cAMP activity on EP2 (normalized to PF-04418948), ligand log([M]) -6, Fig. S1A): 2.72%
remaining activity at 0.1 µM (EP2 WT; read-out: % cAMP activity on EP2 (normalized to PF-04418948), ligand log([M]) -7, Fig. S1A): 8.2%
remaining activity at 0.01 µM (EP2 WT; read-out: % cAMP activity on EP2 (normalized to PF-04418948), ligand log([M]) -8, Fig. S1A): 63.2%
remaining activity at 0.001 µM (EP2 WT; read-out: % cAMP activity on EP2 (normalized to PF-04418948), ligand log([M]) -9, Fig. S1A): 96.2%
remaining activity at 0.0001 µM (EP2 WT; read-out: % cAMP activity on EP2 (normalized to PF-04418948), ligand log([M]) -10, Fig. S1A): 92.4%
remaining activity at 10 pM (EP2 WT; read-out: % cAMP activity on EP2 (normalized to PF-04418948), ligand log([M]) -11, Fig. S1A): 103%
remaining activity at 1 pM (EP2 WT; read-out: % cAMP activity on EP2 (normalized to PF-04418948), ligand log([M]) -12, Fig. S1A): 101%
antagonism profile EP2 versus EP4 (in words) (EP2 WT; cAMP accumulation assay upon PGE2 stimulation, Appendix Fig. S1A): selective antagonists of EP2; also recorded: highly selective for EP2 over EP4
cAMP activity (∆pIC50 from EP2 WT) (EP2 WT; Appendix Fig. S7A): 0.0005 and 0.053 and -0.059
cAMP activity (∆pIC50 from EP2 WT) (EP2 WT; Fig. 3E): 0.043 and 0.00333 and -0.047

Source: article PMC12669672, “Structural insights into selective and dual antagonism of EP2 and EP4 prostaglandin receptors” (The EMBO Journal, 2025)
